Measured values: patent publication US20170095565A1, “CHEMICALLY MODIFIED SMALL MOLECULES” (Nektar Therapeutics, priority 2003, published 2017)
Where a name gives a salt, the structure may show the parent alone. Read-outs that look alike come from different tables or passages of the source.

What was measured:
[1] = Lung residence after intratracheal administration (BAL, BAL cells, residual lung, serum); type: in vivo, rats; conditions: for half-life: rat, other: intratracheal (IT), 30 μg
Procedure: To determine the effect of PEG length on residence time in the lung, a series of in vivo experiments was performed in which each PEG-FITC species was administered intratracheally (IT) to rats, and the amount remaining in the lung was determined at progressive time points. For each species, 30 μg PEG-FITC, prepared in PBS/0.5% BSA, was administered IT to rats (300 μL of a 100 μg/mL solution). […] Following the lavage, lungs were excised, and samples of serum were extracted. The resulting lavage solution was then centrifuged to pellet the cellular fraction (BAL cells) and separate it from the BAL supernatant.
Samples from BAL, BAL cells and serum were read directly in microtiter plates with no prior treatment. To quantitate PEG-FITC remaining in the residual lung material, however, the excised lungs were homogenized and PEG-FITC was extracted in ethanol.
For all samples, quantitation was performed by interpolation from a standard curve generated from known concentrations of the relevant molecule prepared in the correlating matrix. Thus for samples of BAL and BAL cells, the standard samples were prepared in 0.9% NaCl, for serum samples, the standards were prepared in commercially obtained rat serum, and for lung extracts, the standard samples were prepared in PBS: Ethanol (1:3).
For BAL studies, the total amount remaining was calculated for each animal from the product of the concentration and the BAL volume recorded. For BAL cells, the pellet was resuspended in 1 mL; the amount present was calculated accordingly. For residual lung tissue, the amount present in both lungs (μg/lung) was calculated from the product of the concentration and the homogenate volume. Note that although the nominal dose delivered in each experiment was 30 μg, the dosing solution was analyzed from the same standard curve for each experiment and the actual delivered dose was calculated. The data shown throughout this specification are thus corrected for each PEG-FITC species respectively and are represented as percentage dose administered. The doses delivered in each experiment are represented in Table VIII below.

[2] = Cell-based permeability in Calu-3 cells; type: in vitro ADME; conditions: human
Procedure: In vitro cell-based experiments (in a Calu-3 assay) were performed for PEG-FITC conjugates. The Calu-3 cells were cultured with an apical air-interface to mimic the in vivo epithelium.

[3] = PEG-CIPRO absorption from lung after IT administration; conditions: Cipro and PEG-Cipro
Description: In vivo absorption data was collected through rat studies, in which, following IT administration to rats, whole lungs were excised and analyzed for test article concentration.

Portion of dose associated with BAL cells ([1]; 10 min) | Dose recovered in BAL ([1]; 10 min following IT administration) | Serum peak as proportion of administered dose ([1]; 10 min post dose) | Peak amount in serum ([1]; 10 min post dose, based on rat serum volume of approximately 8 mL) | Dose recovered in combined lung-derived fractions ([1]; 10 min post-dose) | Elimination from lung (rat IT) ([1]; fluorescein, PEG and PEG-FITC) | BAL k-el ([1]; rat IT, BAL supernatant) | BAL t1/2-el ([1]; rat IT, elimination half-life from BAL) | half-life ([1]; bronchoalveolar lavage (BAL) supernatant, rat IT, elimination half-life from BAL, read-out: BAL t1/2-el) | half-life ([1]; combined lung compartments, rat IT, combined lung compartments, read-out: Lung t1/2-el (converted)) | BAL t90 ([1]; time at which 90% of the dose would be eliminated) | BAL t99 ([1]; time at which 99% of the dose would be eliminated) | Papp [2] | Elimination from lung (rat IT) [3] | SMILES
approximately 13% | less than 50% | less than 10% | approximately 2 μg | less than 50% | 1.38 h⁻¹ | 1.3253 | 31.4 min | < 31.2 min | 30.1 min | 1.74 h | 3.5 h | 0.34 ×10⁻⁶ cm/s |  | O=C1OC2(c3ccc(O)cc3Oc3cc(O)ccc32)c2ccccc21 [Sodium fluorescein, sodium fluorescein]
 |  |  |  |  |  |  |  |  |  |  |  |  | 10.24 h⁻¹ | O=C(O)c1cn(C2CC2)c2cc(N3CCNCC3)c(F)cc2c1=O [Cipro HCl, ciprofloxacin]
